Experimental data reported in US20160310619A1, “SCREENING METHODS FOR ACETYLCHOLINE RELATED BIOACTIVE MATERIALS USING INHERITED COLOR PREFERENCE OF FISH” (GENOMIC DESIGN BIOENGINEERING COMPANY, priority 2014, published 2016).

What was measured:
zebrafish [1] = test: Color preference of zebrafish in blue/yellow color maze after alcohol; format: in vivo, zebrafish (Danio rerio); conditions: zebrafish 25 days after birth; alcohol 0.5%, 1%, 2% in egg water vs 0% comparison group; FIG. 7
Description: A method for detecting bioactive materials using the innate color preference instinct of fish based on the color recognition and color preference results according to the visual recognition of zebrafish was developed. In order to identify whether a method for screening a bioactive material according to the present invention may effectively detect candidate materials, alcohol was used as an example of the bioactive material to identify whether the color preference of zebrafish is changed between before applied to zebrafish and after applied to the zebrafish. This utilizes the common sense that humans' recognition ability is changed depending on the blood alcohol concentration.
A specific experimental method was as follows. A straight line-shaped screening device (color maze) with a combination of blue and yellow was prepared, and 40 zebrafish, 25 days after birth, were used. Every 10 of the fish were put in each straight-line groove, egg water of 5 ml was used, and then, video-recording was performed for 30 minutes using a video recorder. As predicted, many of the zebrafish moved to blue that is a preferred color of zebrafish. […] The number of zebrafish in each color section was counted through the video recorded over five times in total.

zebrafish [2] = test: Screening for acetylcholine neurotransmission-related materials by innate color preference (blue/yellow color maze); format: in vivo, zebrafish (Danio rerio); conditions: acetylcholinesterase inhibitors vs egg water; five days old fish; FIG. 9(A)-(C)
Description: For this experiment, a straight line-shaped screening device (color maze) was used as a screening device, and blue and yellow that most differ in color preference were used. Further, five days old young fish born from the same male and female were used in the channels of the device and divided into a comparison group and an experimental group in this experiment. The number of entities used in the comparison group and the experimental group was 10 per channel. The final volume of egg water used in each channel was fitted into 4 mL. Considering the direction for illumination and time of transmission of drug to nerves, video-recording was performed for 30 minutes, and then, sleeves were changed. Then, video-recording was resumed for 30 minutes. The number of entities in each of the sections with different colors was counted every two minutes and was processed statistically. As statistics, the significance of the comparison group and the experimental group was identified through the T-test (SPSS, USA).
For acetylcholine (Sigma), tacrine (Sigma), galantamine (Sigma), and caffeine (Sigma) as reagents administered to the experimental group, concentrates including acetylcholine of 1000 mM, tacrine of 20 mM, and galantamine of 10 mM were prepared using third distilled water. 10 entities, five days after fertilization, were put in the channel of each color maze, and egg water of 4 mL was used. […]

Structure (SMILES)	ability of distinguishing colors (number of zebrafish in each color section) (zebrafish [1])	change in color preference (number of young zebrafish in blue and yellow sections) (zebrafish [2])
CCO [alcohol]	as the alcohol concentration increases, the number of zebrafish that can distinguish colors decreases	–
Nc1c2c(nc3ccccc13)CCCC2 [tacrine, 1,2,3,4-tetrahydro-9-acridine amine]	–	moved to yellow that is their avoided color
